Measurements from patent publication US10221129B2, “Inhibitors of human immunodeficiency virus replication” (ViiV HEALTHCARE UK (NO.5) LIMITED, priority 2015, dated 2019).
Like-named read-outs stand apart in the source and are kept apart here.

Experiments:
Format in all cases: cell-based
[1] = tested on: recombinant NL4-3 virus (nef section replaced with Renilla luciferase gene) in MT-2 cells; assay: HIV cell culture assay (antiviral activity, luciferase readout)
Method in brief: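 Serial compound dilutions tested in MT-2 cells infected for 4-5 days with 293T-derived NL4-3 virus carrying Renilla luciferase in place of part of nef. Antiviral activity quantified as luciferase activity, read with a live-cell substrate.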

[2] = tested on: uninfected MT2 cells; assay: Compound cytotoxicity, XTT-based colorimetric assay; conditions: day 4, XTT
Method in brief: (§1)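 Run under the antiviral-assay protocol but without virus. Viability was read on day 4 and CC50 values were derived from the readout.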

[3] = as above; conditions: human, uninfected MT2 cells, day 4, XTT
Method in brief: as §1

[4] = MT-2 cells infected for 4-5 days with recombinant NL4-3 Renilla luciferase virus
[5] = MT-2 cells infected for 4-5 days with recombinant NL4-3 Renilla luciferase virus, read-out: EC50
[6] = Renilla, NL43, MT-2 cells infected for 4-5 days with recombinant NL4-3 Renilla luciferase virus

| Compound | EC50 [1, 4] | CC50 [2] | EC50 [1, 5] | EC50 [1, 6] | CC50 at 4 days [3] |
| --- | --- | --- | --- | --- | --- |
| CC1CCc2ccccc2N1S(=O)(=O)NC(=O)N[C@@H](Cc1cc(F)cc(F)c1)C(=O)N(C)c1ccc2scnc2c1 (single isomer, unassigned) [VN-11] | 90 nM | 93500 nM |  |  |  |
| CN(C(=O)[C@H](Cc1cc(F)cc(F)c1)NC(=O)NS(=O)(=O)N1CCc2cncnc21)c1ccc2scnc2c1 [VN-19] |  | 70500 nM | 680 nM |  |  |
| CC1CN(S(=O)(=O)NC(=O)N[C@@H](Cc2cc(F)cc(F)c2)C(=O)N(C)c2ccc3scnc3c2)c2ncccc21 (single isomer, unassigned) [VN-15] |  | > 100000 nM |  | 30 nM |  |
| COc1ccc(N(C)C(=O)[C@H](Cc2ccccc2)NC(=O)NS(=O)(=O)NCc2n[nH]c3ccccc23)cc1 [JB-66] |  | > 100000 nM | 1180 nM |  |  |
| CC1Cc2cccnc2N1S(=O)(=O)NC(=O)N[C@@H](Cc1cc(F)cc(F)c1)C(=O)N(C)c1ccc2scnc2c1 (single isomer, unassigned) [VN-7] | 50 nM | > 1000 nM |  |  |  |
| CN(C)C(=O)C1Cc2cccnc2N1S(=O)(=O)NC(=O)N[C@@H](Cc1cc(F)cc(F)c1)C(=O)N(C)c1ccc2scnc2c1 (single isomer, unassigned) [BB-29] | 2430 nM | > 100000 nM |  |  |  |
| CN(C(=O)[C@H](Cc1cc(F)cc(F)c1)NC(=O)NS(=O)(=O)n1ccc2cncnc21)c1ccc2scnc2c1 [VN-20] |  | > 100000 nM | 940 nM |  |  |
| CC1CCc2ccccc2N1S(=O)(=O)NC(=O)N[C@@H](Cc1cc(F)cc(F)c1)C(=O)N(C)c1ccc2scnc2c1 (single isomer, unassigned) [VN-10] |  | > 33300 nM |  | 100 nM |  |
| CCCN(C)S(=O)(=O)NC(=O)N[C@@H](Cc1cc(F)cc(F)c1)C(=O)N(C)c1ccc2scnc2c1 [CA-141] |  |  |  | 40 nM | > 100000 nM |
| COc1ccc(N(C)C(=O)[C@H](Cc2ccccc2)NC(=O)NS(=O)(=O)NC(C)c2cccc(C)n2)cc1 (stereo partly drawn) [JB-58] |  |  |  | 690 nM | > 100000 nM |
| CCOc1ccc(N(CC)C(=O)[C@H](Cc2ccccc2)NC(=O)NS(=O)(=O)N2CCc3cc(C)ccc32)cc1 [JB-70] |  |  |  | 100 nM | > 33300 nM |
| COc1ccc(N(C)C(=O)[C@H](Cc2cc(F)cc(F)c2)NC(=O)NS(=O)(=O)N2CCC[C@@H]2C(=O)N(C)C)cc1 [BB-27] |  |  |  | 970 nM | > 100000 nM |
| CN(C(=O)[C@H](Cc1cc(F)cc(F)c1)NC(=O)NS(=O)(=O)N1CCCC1c1ccccc1)c1ccc2scnc2c1 (single isomer, unassigned) [VN-4] | 190 nM | 57500 nM |  |  |  |
| CN(C(=O)[C@H](Cc1cc(F)cc(F)c1)NC(=O)NS(=O)(=O)N1CCc2cccnc21)c1ccc2scnc2c1 [ZY-1] |  |  |  | 10 nM | > 100000 nM |
| COc1ccc(N(C)C(=O)[C@H](Cc2cc(F)cc(F)c2)NC(=O)NS(=O)(=O)N2CCc3cccnc32)cn1 [GW-11] |  |  |  | 90 nM | > 100000 nM |
| Cc1ccc(N(C)C(=O)[C@H](Cc2cc(F)cc(F)c2)NC(=O)NS(=O)(=O)N2CCc3cncnc32)cc1F [BB-14] |  |  |  | 20 nM | 93100 nM |
| CN(C(=O)[C@H](Cc1cc(F)cc(F)c1)NC(=O)NS(=O)(=O)N1CCC(c2ccccc2)C1)c1ccc2scnc2c1 (mixture of isomers) [CA-152] |  |  |  | 550 nM | > 100000 nM |

| Compound | EC50 [1, 4] | CC50 [2] | EC50 [1, 5] | EC50 [1, 6] | CC50 at 4 days [3] |
| --- | --- | --- | --- | --- | --- |
| COc1ccc(N(C)C(=O)[C@H](Cc2ccccc2)NC(=O)NS(=O)(=O)Nc2cccc(S(=O)(=O)N3CCOCC3)c2)cc1 [CA-47] |  |  |  | 2140 nM | > 100000 nM |
| CN(C(=O)[C@H](Cc1cc(F)cc(F)c1)NC(=O)NS(=O)(=O)N1CCCC1c1ccccn1)c1ccc2scnc2c1 (single isomer, unassigned) [VN-2] | 610 nM | > 100000 nM |  |  |  |
| CN(C(=O)[C@H](Cc1cc(F)cc(F)c1)NC(=O)NS(=O)(=O)NCc1ccccc1)c1ccc2scnc2c1 [CA-126] |  |  |  | 520 nM | > 100000 nM |
| CN(C(=O)[C@H](Cc1cc(F)cc(F)c1)NC(=O)NS(=O)(=O)N(C)C)c1ccc2scnc2c1 [VN-16] |  |  |  | 30 nM | > 100000 nM |
| COc1ccc(N(C)C(=O)[C@H](Cc2ccccc2)NC(=O)NS(=O)(=O)Nc2cccc(NS(C)(=O)=O)c2)cc1 [CA-46] |  |  |  | 11600 nM | > 100000 nM |
| COc1ccc(N(C)C(=O)[C@H](Cc2ccccc2)NC(=O)NS(=O)(=O)Nc2cc(Cl)ccc2F)cc1 [JB-49] |  |  |  | 200 nM | > 100000 nM |
| COc1ccc(N(C)C(=O)[C@H](Cc2ccccc2)NC(=O)NS(=O)(=O)Nc2ccc3c(c2)CS(=O)(=O)C3)cc1 [CA-48] |  |  |  | 260 nM | > 100000 nM |
| COc1ccc(N(C)C(=O)[C@H](Cc2ccccc2)NC(=O)NS(=O)(=O)n2c(C)cc3ccc(OC)cc32)cc1 [CA-64] |  |  |  | 440 nM | 62400 nM |
| COc1ccc(N(C)C(=O)[C@H](Cc2ccccc2)NC(=O)NS(=O)(=O)Nc2ccc(S(=O)(=O)N3CCCC3)cc2)cc1 [CA-43] |  |  |  | 300 nM | > 100000 nM |
| COc1ccc(N(C)C(=O)[C@H](Cc2ccccc2)NC(=O)NS(=O)(=O)NCc2nccs2)cc1 [JB-43] |  |  |  | 760 nM | > 100000 nM |
| CN(C(=O)[C@H](Cc1cc(F)cc(F)c1)NC(=O)NS(=O)(=O)N1CCCC1=O)c1ccc2scnc2c1 [BB-33] |  |  |  | 450 nM | > 100000 nM |
| Cc1ccc(N(C)C(=O)[C@H](Cc2cc(F)cc(F)c2)NC(=O)NS(=O)(=O)N2CCc3cccnc32)cn1 [GW-2] |  |  |  | 70 nM | > 100000 nM |
| COc1ccc(N(C)C(=O)[C@H](Cc2ccccc2)NC(=O)NS(=O)(=O)Nc2ccc(Br)cc2)cc1 [CA-16] |  |  |  | 90 nM | > 100000 nM |
| CN(C(=O)[C@H](Cc1cc(F)cc(F)c1)NC(=O)NS(=O)(=O)Nc1ccccn1)c1ccc2scnc2c1 [CA-114] |  |  |  | 100 nM | > 100000 nM |
| COc1ccc(N(C)C(=O)[C@H](Cc2ccccc2)NC(=O)NS(=O)(=O)N(c2ccccc2)C(C)C)cc1 [CA-25] |  |  |  | 1010 nM | > 33300 nM |
| COc1ccc(N(C)C(=O)[C@H](Cc2ccccc2)NC(=O)NS(=O)(=O)NCC(=O)N2CCN(c3ccccc3)CC2)cc1 [CA-58] |  |  |  | 7450 nM | > 100000 nM |
